Source: patent publication US20080261234A1, “Peptides and their use in assays for cardiovascular disease” (priority 2000, published 2008)
Where no end group is shown, it is not given here.

Legend:
[1] = system: autoantibodies against oxLDL in serum samples; test: Peptide EIA: autoantibodies against peptides and peptide-MDA complexes; assay type: binding, human; set-up: key to reaction of autoantibodies (mean ±SD): absorbance at 450 nm, blank subtracted; settings: for reaction of autoantibodies (mean ±SD): plate coated with natp63, MDA and MDAp63; for amount of autoantibodies, mean absorbance after subtracting the blank: Patients (n = 20), six forms of p63 peptide antigen; for Reactivity of autoantibodies, absorbance (PEPTIDE EIA): absorbance at 450 nm, serum 1:20; for MDAp63:natp63 ratio: after subtracting the blank
Procedure: Native and MDA-modified peptides were tested always on the same plate. One half of the plate was coated with the native peptide (20 μg/ml) and the other half was coated with the MDA-modified peptide [(20 μg/ml) 100 μl/well in 100 mmol/l bicarbonate buffer (pH 9.5)]. Coated plates were incubated overnight at room temperature (RT) and then washed with an automatic washer (Wellwash 4 MK II, Labsystems Oy) three times with phosphate buffered saline (PBS) containing 0.05% Tween 20. Plates were blocked with PBS containing 1% human serum albumin (HSA) (150 μl/well) for 1 h at RT and washed as above. Serum samples were diluted 1:20 in PBS containing 0.2% HSA and 0.05% Tween 20 and pipetted 100 μl/well. Plates were incubated for 2 h at RT and washed as above. HRP-conjugated anti-human IgG (diluted 1:20 000 in the sample buffer) was added (100 μl) to each well and incubated for 1 h at RT. After washing, colour was developed by adding the peroxidase substrate (tetramethylbenzidine (TMB) as a chromagen, 100 μl/well) and incubating the plates for 30 min at room temperature in the dark. The reaction was stopped with 0.5 mol/l H2SO4 (100 μl/well) and absorbances were measured at 450 nm (Multiskan microplate reader, Labsystems Oy). The results are shown in Table 2 and are expressed as the absorbance measurement obtained for the native and the modified peptides or as the ratio between antibody binding to the native and the modified peptides after subtracting the blank control.
To find out whether autoantibodies react with the peptide, with MDA or both when peptide-MDA complexes are used as antigen, a microtiter plate was coated with natp63, MDA and MDAp63 antigen and the immunoassays performed. MDA antigen was prepared as MDAp63 antigen but without peptide and MDA was diluted for coating in the same way as MDAp63.

[2] = system: antibodies of patient samples binding to coated peptide; test: Inhibition test: increasing concentrations of peptide added to sample diluent in peptide EIA; set-up: species or system human; settings: inhibitor 100 μg/ml
Procedure: The specificity of cyclic (p244cyc) and the corresponding linear peptide (p244) were tested in inhibition tests by adding increasing concentrations of peptides to sample diluent. P244cyc peptide inhibited with the highest inhibitor concentration (100 μg/ml), the average being 61% of the binding of 8 patient samples (FIG. 2A); 3 samples were inhibited by less than 50%. P244 inhibited with the highest inhibitor concentration (100 μg/ml), the average being 70% of the binding of 24 patient samples (FIG. 2B). 3 samples were inhibited less than 50%. P244 seemed to be more specific than p244cyc peptide. Finally, it was confirmed that the epitope of p244 is similar to p63 by coating plate with p244 and inhibiting the binding of patient samples with p63. P63 inhibited with the highest inhibitor concentration (100 μg/ml), the average being 53% of the binding of 22 patient samples (FIG. 3). 9 samples were inhibited less than 50%.

[3] = system: antibodies of patient samples against the peptides; test: Specificity test: peptide EIA with 0.5 M sodium chloride added to sample diluent; assay type: binding, human; settings: mean of 20 patient samples
Procedure: The specificity of different antigens was tested by titration of peptides. […] In addition, the specificity of antibodies against cyclic and linear peptides, p244cyc and p244, was tested by adding 0.5 M sodium chloride to sample diluent. The titer of patient samples against p244, p244cyc and p63-MDA was 19%, 38% and 47% lower (mean of 20 patient samples), respectively, when salt was added to sample diluent. It appears that antibodies against p244 have the best specificity.

[4] = system: autoantibodies against oxLDL in serum samples; test: OxLDL EIA with copper-oxidized human LDL as antigen; assay type: binding; settings: for Reactivity of autoantibodies, absorbance (OxLDL EIA): absorbance at 450 nm
Procedure: Various native and modified peptides, derived from the amino acid sequence of apoB-100 (Chen et al., supra), were tested as antigens suitable for use in EIA. The peptides were modified with MDA to produce similar oxidation specific epitopes as in oxLDL. The results of peptide EIA are compared to the results of oxLDL EIA which was optimized using copper-oxidized LDL as antigen; see Närvänen et al., Free Radical Biology & Medicine, in press.

O=CCC=O [MDA, Malondialdehyde, reference compound]
reaction of autoantibodies (mean ±SD) ([1]; control samples, n=23): 0.300±0.019
reaction of autoantibodies (mean ±SD) ([1]; patient samples, n=16): 0.338±0.000

LSVKAQYKKNKHRHSITNPL [p63, 2, 20 amino acids, 4 lysines]
average inhibition of the binding of patient samples ([2]; 22 patient samples, plate coated with p244, inhibited with p63): 53%
amount of autoantibodies, mean absorbance after subtracting the blank [1]: 0.389—
reaction of autoantibodies (mean ±SD) ([1]; control samples, n=23): 0.282±0.100
Reactivity of autoantibodies, absorbance (PEPTIDE EIA) ([1]; healthy controls (n = 17)): 0.216 ± 0.142
reaction of autoantibodies (mean ±SD) ([1]; patient samples, n=16): 0.222±0.041
Reactivity of autoantibodies, absorbance (PEPTIDE EIA) ([1]; patients (n = 19)): 0.159 ± 0.079

MDAp63: p63 modified with MDA (LSVKAQYKKNKHRHSITNPL; also: malondialdehyde (MDA) coupled via primary amines of lysines)
amount of autoantibodies, mean absorbance after subtracting the blank [1]: 0.601—
reaction of autoantibodies (mean ±SD) ([1]; control samples, n=23): 0.533±0.077
Reactivity of autoantibodies, absorbance (PEPTIDE EIA) ([1]; healthy controls (n = 17)): 0.497 ± 0.184
MDAp63:natp63 ratio ([1]; healthy controls (n = 17)): 2.592 ± 0.751
reaction of autoantibodies (mean ±SD) ([1]; patient samples, n=16): 0.431±0.040
Reactivity of autoantibodies, absorbance (PEPTIDE EIA) ([1]; patients (n = 19)): 0.418 ± 0.141
MDAp63:natp63 ratio ([1]; patients (n = 19)): 2.866 ± 0.924
titer of patient samples lower when salt was added to sample diluent [3]: 47%

P63-PEA-MDA: p63 modified with MDA and phosphatidylethanolamine (LSVKAQYKKNKHRHSITNPL; also: modified with MDA and phosphatidylethanolamine) [Peptide P63-PEA-MDA]
amount of autoantibodies, mean absorbance after subtracting the blank [1]: 0.406—

P244cyc-MDA: cyclic p63 modified with MDA (CGLSVKAQYKKNKHRHSITNPLGC; also: cyclic (mode not given here), modified with MDA) [Peptide P244cyc-MDA]
amount of autoantibodies, mean absorbance after subtracting the blank [1]: 0.521—

natLDL: native human low density lipoprotein, used as antigen
Reactivity of autoantibodies, absorbance (OxLDL EIA) ([4]; healthy controls (n = 17)): 0.351 ± 0.172
Reactivity of autoantibodies, absorbance (OxLDL EIA) ([4]; patients (n = 19)): 0.258 ± 0.170

oxLDL: copper-oxidized low density lipoprotein purified from human plasma, used as antigen
oxLDL:natLDL ratio ([4]; healthy controls (n = 17)): 1.886 ± 0.689
Reactivity of autoantibodies, absorbance (OxLDL EIA) ([4]; healthy controls (n = 17)): 0.591 ± 0.221
oxLDL:natLDL ratio ([4]; patients (n = 19)): 2.535 ± 1.430
Reactivity of autoantibodies, absorbance (OxLDL EIA) ([4]; patients (n = 19)): 0.600 ± 0.287

p244: a linear form of p63, which contains two extra amino acids (glycine and cysteine) at both ends of the peptide (CGLSVKAQYKKNKHRHSITNPLGC)
average inhibition of the binding of patient samples ([2]; 24 patient samples, p244): 70%
amount of autoantibodies, mean absorbance after subtracting the blank [1]: 0.995—
titer of patient samples lower when salt was added to sample diluent [3]: 19%

p244cyc: cyclic p244 (CGLSVKAQYKKNKHRHSITNPLGC; also: cyclic (way of cyclisation not given here))
average inhibition of the binding of patient samples ([2]; 8 patient samples, p244cyc): 61%
amount of autoantibodies, mean absorbance after subtracting the blank [1]: 0.734—
titer of patient samples lower when salt was added to sample diluent [3]: 38%
